Paper PMC4912613, “A broad analysis of resistance development in the malaria parasite” (Nature Communications, 2016)
pEC50: −log10 of the molar value.

Tests used:
Assay type in all cases: cell-based, Plasmodium falciparum
[1] = test system: CYTb-G131S (cytb G131S, parent Dd2); assay: Cross-resistance EC50 assay, CYTb-G131S; conditions: Plasmodium falciparum, SYBR green 72 hour assay, synchronized parasites, 384-well format
Text: (§1) To evaluate potential overlapping activity against known antimalarial drug targets, we performed dose-response studies with each compound against our assembled set of drug-resistant lines and their corresponding parents, in an asexual blood stage proliferation assay (Table 1). Comparisons were made to the drug-sensitive strain 3D7 when a parent was unavailable (TM90C2A, W2 and Dd2). As laboratories conducted EC50 assays with different strains and protocols, all comparisons were made between assays from the same laboratory and under the same assay conditions. Compounds displaying >5-fold EC50 shifts relative to the parent or sensitive strain were flagged as having potentially non-novel targets. Average fold shifts per strain ranged from 0.82 to 2.34, with a median of 1.23 indicating there was not common resistance to any one resistant clone. No resistance patterns were observed when classifying the compounds based on chemical structure, but this was not surprising given the diversity of compounds chosen. On the other hand, given that these confirmed compounds were derived from larger unconfirmed hit lists to which some filtration criteria may have been applied (for example, elimination of obvious dihydrofolate reductase inhibitors[32]), some[10][11][12][13] pre-existing bias may exist in the set. […]
(§2) Alternatively, a SYBR Green-based proliferation approach was used for the 72-h assay, as previously described. Briefly, a culture of either synchronized or asynchronous parasitized RBCs (0.3% parasitemia and 4% haematocrit) in screening medium (identical to supplemented medium above except no serum was added) was exposed to serial drug dilutions. Plates were incubated at 37 °C and gassed with 93% N2, 4% CO2 and 3% O2 for 72 h. Following incubation, 10 × SYBR Green I (Invitrogen; supplied in 10,000 × concentration) in lysis buffer ([…], 5 mM EDTA, 0.16% Saponin wt per vol and 1.6% Triton X vol per vol) was added to the wells and the plates were incubated overnight at room temperature before plate reading. EC50 assays were repeated three times, taking the average EC50 value from each assay set, and removing any outliers using a single iteration of Grubbs' test, eliminating values with z-scores above the critical z-value (α=0.05). The raw EC50 values for synchronized parasites assayed in a 384-well format are listed in Supplementary Data 4. The raw EC50 values for asynchronous parasites assayed in a 96 or 1536-well format are listed in Supplementary Data 5.
(§3) EC50 values for each strain were compared with those of the corresponding parent strain to determine fold-shift changes and identify resistance. To minimize the cause variance between assays, all comparisons were conducted between strains assayed under identical conditions. A one-way ANOVA followed by a Dunnet's post-test was conducted in GraphPad Prism to identify significant changes between the parent and resistant strain.

[2] = test system: ATQ-R4 (cytb M133I and L144S, parent 3D7); assay: Cross-resistance EC50 assay, ATQ-R4; conditions: Plasmodium falciparum, 3D7; SYBR green 72 hour assay; asynchronized parasites; 96-well or 1536-well format; ATQ-R4
Text: as §1, §2, §3

[3] = test system: Stage 5 gametocytes from P. falciparum NF54; assay: Late-stage (stage V) gametocyte survival assay, MitoTracker; conditions: for pEC50: Plasmodium falciparum, P. falciparum NF54, 72 h, read-out: Stage 5 Gametocyte EC50; for EC50 fold shift compared to asexual stage: Stage 5 Gametocyte EC50: gametocyte EC50 / 3D7 EC50
Outline: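 Synchronized P. falciparum NF54 stage V gametocytes were exposed to compound (1.25 μM or 12.5 μM) for 72 h. MitoTracker Red CMXRos (500 nM final) was then added with saponin to lyse RBCs, and plates were imaged by high-content fluorescence. The readout was the number of metabolically active gametocytes per well.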

[4] = test system: P. falciparum 3D7, Dd2, Dd2Δexo; assay: In vitro evolution of compound-resistant lines (selection); conditions: for Time Length to Obtain Mutants: in vitro selection; for # of Resistant Strains Generated: resistant cultures out of three independent cultures; for EC50 fold shifts observed: selected parasites vs selection parent
Text: While we found an overall lack of pre-existing resistance, analysing the onset of resistance was critical, as compounds resulting in rapid resistance are not ideal for clinical development. We therefore sought to create drug-resistant parasites using a variety of different selection methods. We implemented either a high-dose method or a ramp-up/pulse method for our in vitro selections. Two of the 50 compounds—MMV028895 and MMV665824—were removed from the selection study during experimentation. […] Out of the remaining 48 compounds, resistant parasites were obtained for 23 (Supplementary Data 1). As each selection was performed in triplicate with three independent cultures, we succeeded in generating a total of 66 resistant cultures. Parasites resistant to MMV026596 were not obtained despite 100 days of selection, but the cultures acquired hypersensitivity to mefloquine with a 10-fold reduction in EC50 compared with its parental line, 3D7. For the remaining 24 compounds, acquisition of resistant parasites was unsuccessful despite numerous attempts over an extensive period of time.
Based on the compound speed of action and lab specialty, selections were conducted using a high-pressure intermittent selection method, a step-wise selection method, or a constant selection method. For high-pressure selections, ∼1–2 × 10^9 parasites were treated at a concentration of 3–10 × EC50 until parasites could not be seen by microscopy (4–10 days). Following treatment, compound pressure was removed and cultures were allowed to recover. Once healthy parasites were seen and parasitemia reached ∼2%, compound pressure was reinstated. For step-wise selections, ∼1 × 10^8 parasites were treated at a starting concentration resulting in a reduced growth rate of 50%. Cultures were examined daily by microscopy, increasing compound concentration in increments of 5–10% as needed to maintain a 50% reduced growth rate. Selections were carried out until cultures achieved a reproducible EC50 fold shift of >3 × . Finally, constant selections were conducted in a similar manner to the high-pressure intermittent method with the exception that compound pressure was never removed. Following successful selection, cultures were cloned out using a limiting dilution method as previously described. Selections were terminated after 200 days if resistance could not be obtained.

Compound	pEC50 ([1]; strain CYTb:G131S (Dd2 parent))	EC50 [2]	pEC50 [3]	EC50 fold shift compared to asexual stage: Stage 5 Gametocyte EC50 [3]	Time Length to Obtain Mutants [4]	# of Resistant Strains Generated [4]	EC50 fold shifts observed [4]	pEC50 ([1]; DD2, CYTb:G131S strain)
CC(NCc1ccccc1)c1cc(Cl)ccc1O (stereo not drawn) [MMV665789]	6.04	0.41 µM	< 5.90	> 1	MODERATE (50-125 days)	2/3	3-7x	
FC(F)(F)c1cccc(Nc2nc3ccccc3nc2Nc2cccc(C(F)(F)F)c2)c1 [MMV665794]	6.76	0.434 µM	6.08		SHORT (0-50 days)	0/3	no shift	
O=C(Nc1ccc(Cl)c(Cl)c1)Nc1ccc(Cl)c(Cl)c1 [MMV665852]	5.95	2.89 µM	< 5.90		LONG (> 125 days)	0/3	no shift	
OC(CNC1CCCCC1)Cn1c2ccc(I)cc2c2cc(I)ccc21 (stereo not drawn) [MMV665882]	7.34	0.026 µM	6.49	4.44	LONG (> 125 days)	3/3	2-3x	
O=C(Nc1ccccc1O)c1ccc(Oc2cccc(C(=O)Nc3ccccc3O)c2)cc1 [MMV665888]	6.00	1.05 µM	5.53	2.46	LONG (> 125 days)	0/3	no shift	
COc1ccc(C(=O)C2CC2c2ccc(Cl)cc2)cc1 (stereo not drawn) [MMV665924]	5.72	3.41 µM	< 5.90	> 1.5	SHORT (0-50 days)	3/3	3-5x	
CCC(C)NCC(O)(c1ccc(Cl)cc1)c1ccc(Cl)cc1 (stereo not drawn) [MMV665928]	6.17	0.09 µM	< 5.90	> 2.5	SHORT (0-50 days)	0/3	no shift	
O=C(Nc1ccsc1C(=O)NC1CCCCC1)c1ccc(F)cc1 [MMV665939]	5.68	3.73 µM	< 5.90		MODERATE (50-125 days)	3/3	4-6x	
Nc1ccc(-c2nc3cc(Cc4ccc5[nH]c(-c6ccc(N)cc6)nc5c4)ccc3[nH]2)cc1 [MMV665943]	6.39	0.045 µM	6.39	1.29	SHORT (0-50 days)	0/3	no shift	
O=C(NC(c1ccccc1)c1ccc2cccnc2c1O)c1ccccc1 (stereo not drawn) [MMV666080]	6.40	0.746 µM	5.14	8.53	LONG (> 125 days)	0/3	no shift	
COc1cc(C(=O)ON=C(N)Cc2cccc3ccccc23)cc(OC)c1OC [MMV666687]	6.31	0.784 µM	5.36		LONG (> 125 days)	0/3	no shift	
c1cc(-c2cnc3ccc(-c4ccc(N5CCOCC5)cc4)nn23)ccn1 [MMV668311]	7.20	0.029 µM	6.06	18.31	LONG (> 125 days)	0/3	no shift	
c1cncc(-c2cc(N3CCC(CN4CCOCC4)CC3)nc(-c3ccncc3)n2)c1 [MMV668399]	6.86	0.332 µM	< 4.90		LONG (> 125 days)	3/3	2-4x	
CN(C)CCCNCc1ccc(-c2ccc(Cl)c(Cl)c2)o1 [MMV673964]		0.163 µM	5.95	1.86	LONG (> 125 days)	0/3	no shift	6.44
